Measured values published in US12479895B2, “C-terminal CDNF and MANF fragments, pharmaceutical compositions comprising same and uses thereof” (MyNeuroCure Oy, priority 2018, dated 2025).

Experiments:
[1] = test system: ER stressed SCG neurons; assay: Survival of tunicamycin-treated (ER stressed) SCG sympathetic neurons after microinjection; type: cell-based, mice; conditions: for survived neurons as % compared to neurons grown in the presence of NGF: microinjected into cytoplasm, CDNF (400); for Fold change of survived neurons compared to neurons injected with PBS: data of Table 1 divided by values of PBS
Description: Non-neuronal cells were removed by extensive preplating. Almost pure neurons were cultured in polyornithine/laminin (Sigma)-coated 35-mm plastic dishes in the small-size standard microislands in the Neurobasal medium and B27 supplement (Invitrogen/Gibco) in the presence of 30 ng/ml mouse nerve growth factor (NGF) (Promega) for 5-6 days. NGF was deprived by extensive washing and addition of the function-blocking anti-NGF antibodies (Roche). The neurons were pressure-microinjected with special neuronal microinjection equipment (Hellman et al., 2011; Hamner et al., 2001; Lindholm et al., 2002; Sun et al., 2001; Yu et al., 2003)(Sun et al., 2001; Sun et al., 2003). For the survival assay, all neurons on the microislands were counted in the beginning (initial number) and the end (three days) of the experiment and expressed as % of initial.
Microinjection of the sympathetic neurons was performed as described earlier (Yu, L. Y., Jokitalo, E., Sun, Y. F., Mehlen, P., Lindholm, D., Saarma, M., and Arumae, U. (2003) J Cell Biol. 163, 987-997). Plasmids for CDNF have been described earlier. Briefly, newborn mouse SCG neurons were grown with NGF (Promega) for 5-6 days then the nuclei were microinjected with the expression plasmids for full-length (FL)-CDNF and C-CDNF together with a reporter plasmid for enhanced green fluorescent protein (EGFP), using vector concentration of 10 ng/ul in each experiment. […] For protein microinjection, recombinant full length (FL)-CDNF, C-CDNF proteins in PBS at 200 ng/ul were microinjected directly into the cytoplasm together with fluorescent reporter Dextran Texas Red (MW 70000 Da) (Invitrogen, Molecular Probes) that facilitates identification of the successfully injected neurons. Next day tunicamycin (2 μM) was added, and after 3 days the living fluorescent neurons were counted. Living fluorescent (EGFP-expressing or Dextran Texas Red-containing) neurons were “blindly” counted three days later and expressed as percent of initial living fluorescent neurons counted 2-3 hours after microinjection. The experiments with plasmids were repeated on independent cultures 5 times for plasmid experiment, whereas four independent protein injection experiments were performed. On average, 50-80 neurons were successfully injected per experimental group. The results were expressed as the mean±the SEM. Data of each experimental group was compared with control plasmid PCR3.1 (vector) or PBS (in the protein injection experiments) by one-way ANOVA and post hoc Dunnett's t test. The null hypothesis was rejected at p<0.05.

[2] = test system: dopamine neurons; assay: Survival of TH-positive dopamine neurons in dissociated midbrain floor cultures; type: cell-based, mouse; conditions: for Fold change of survived neurons compared to neurons grown without growth factors: data of Table 3 divided by values of no factor
Description: To study the dopamine neurons (Yu et al., 2008; Yu and Arumae, 2008), the midbrain floors were dissected from the ventral mesencephali of 13.5-d-old NMRI strain mouse embryos. Tissues were incubated with 0.5% trypsin (ICN Biomedical), then mechanically dissociated using a large fire-polished Pasteur pipette. The neurons were grown on the poly-L-ornithine-coated (Sigma) 96-well culture plates in DMEM/F12 medium (Invitrogen) containing N2 supplement (Invitrogen) in the presence or absence of GDNF (100 ng/ml) or with CDNF, MANF, C-CDNF and C-MANF polypeptides at different concentrations for five days. Same amount of the neurons were plated to each well at the beginning of the experiments. The cultures without added neurotrophic factors served as the negative control. As the midbrain cultures contain several neuronal types, the cultures were fixed and immunostained with the antibodies to tyrosine hydroxylase (TH) (Millipore), a specific marker for the dopaminergic neurons. Images of each well were scanned by CellInsight™ and immunopositive neurons were counted by CellProfiler and CellProfiler analyst software. Data are expressed as a percentage of GDNF-maintained TH-positive neurons. All experiments were repeated at least three times on the independent cultures. The results were expressed as the mean the SEM and were tested for the significance by either one-way ANOVA and Tukey's post hoc test or by two-tailed Student's t-test. The null hypothesis was rejected at P≤0.05.

KYEKTLDLASVDLRKMRVAELKQILHSWGEECRACAEKTDYVNLIQELAPKYA (listed as Homo sapiens) [pep3]
survived neurons as % compared to neurons grown in the presence of NGF ([1]; Table 1A (FIG. 14), AVG of exp1-2, tunicamycin 2 μM): 85.46 % NGF | survived neurons as % compared to neurons grown in the presence of NGF ([1]; Table 1A (FIG. 14), exp1, tunicamycin 2 μM, counted after 3 days): 83.08 % NGF | survived neurons as % compared to neurons grown in the presence of NGF ([1]; Table 1A (FIG. 14), exp2, tunicamycin 2 μM, counted after 3 days): 87.84 % NGF | Fold change of survived neurons compared to neurons injected with PBS ([1]; Table 2, AVG): 2.32 Fold to PBS | Fold change of survived neurons compared to neurons injected with PBS ([1]; Table 2, exp1): 2.42 Fold to PBS | Fold change of survived neurons compared to neurons injected with PBS ([1]; Table 2, exp2): 2.21 Fold to PBS | survived neurons as % compared to neurons grown in the presence of GDNF ([2]; Table 3A (FIG. 15), AVG, 1 ng/ml, 5 days): 66.40 % GDNF | survived neurons as % compared to neurons grown in the presence of GDNF ([2]; Table 3A (FIG. 15), AVG, 10 ng/ml, 5 days): 73.60 % GDNF | survived neurons as % compared to neurons grown in the presence of GDNF ([2]; Table 3A (FIG. 15), AVG, 100 ng/ml, 5 days): 74.14 % GDNF | survived neurons as % compared to neurons grown in the presence of GDNF ([2]; Table 3A (FIG. 15), AVG, 1000 ng/ml, 5 days): 81.99 % GDNF | survived neurons as % compared to neurons grown in the presence of GDNF ([2]; Table 3A (FIG. 15), exp1, 1 ng/ml, 5 days): 73.87 % GDNF | survived neurons as % compared to neurons grown in the presence of GDNF ([2]; Table 3A (FIG. 15), exp1, 10 ng/ml, 5 days): 74.30 % GDNF | survived neurons as % compared to neurons grown in the presence of GDNF ([2]; Table 3A (FIG. 15), exp1, 100 ng/ml, 5 days): 85.15 % GDNF | survived neurons as % compared to neurons grown in the presence of GDNF ([2]; Table 3A (FIG. 15), exp1, 1000 ng/ml, 5 days): 84.53 % GDNF | survived neurons as % compared to neurons grown in the presence of GDNF ([2]; Table 3A (FIG. 15), exp2, 1 ng/ml, 5 days): 62.76 % GDNF | survived neurons as % compared to neurons grown in the presence of GDNF ([2]; Table 3A (FIG. 15), exp2, 10 ng/ml, 5 days): 64.35 % GDNF | survived neurons as % compared to neurons grown in the presence of GDNF ([2]; Table 3A (FIG. 15), exp2, 100 ng/ml, 5 days): 58.79 % GDNF | survived neurons as % compared to neurons grown in the presence of GDNF ([2]; Table 3A (FIG. 15), exp2, 1000 ng/ml, 5 days): 80.59 % GDNF | survived neurons as % compared to neurons grown in the presence of GDNF ([2]; Table 3A (FIG. 15), exp3, 1 ng/ml, 5 days): 62.58 % GDNF | survived neurons as % compared to neurons grown in the presence of GDNF ([2]; Table 3A (FIG. 15), exp3, 10 ng/ml, 5 days): 82.16 % GDNF | survived neurons as % compared to neurons grown in the presence of GDNF ([2]; Table 3A (FIG. 15), exp3, 100 ng/ml, 5 days): 78.46 % GDNF | survived neurons as % compared to neurons grown in the presence of GDNF ([2]; Table 3A (FIG. 15), exp3, 1000 ng/ml, 5 days): 80.86 % GDNF | Fold change of survived neurons compared to neurons grown without growth factors ([2]; Table 4, AVG, 1 ng/ml): 1.08 fold | Fold change of survived neurons compared to neurons grown without growth factors ([2]; Table 4, AVG, 10 ng/ml): 1.20 fold | Fold change of survived neurons compared to neurons grown without growth factors ([2]; Table 4, AVG, 100 ng/ml): 1.21 fold | Fold change of survived neurons compared to neurons grown without growth factors ([2]; Table 4, AVG, 1000 ng/ml): 1.34 fold | Fold change of survived neurons compared to neurons grown without growth factors ([2]; Table 4, exp1, 1 ng/ml): 1.29 fold | Fold change of survived neurons compared to neurons grown without growth factors ([2]; Table 4, exp1, 10 ng/ml): 1.30 fold | Fold change of survived neurons compared to neurons grown without growth factors ([2]; Table 4, exp1, 100 ng/ml): 1.49 fold | Fold change of survived neurons compared to neurons grown without growth factors ([2]; Table 4, exp1, 1000 ng/ml): 1.48 fold | Fold change of survived neurons compared to neurons grown without growth factors ([2]; Table 4, exp2, 1 ng/ml): 1.00 fold | Fold change of survived neurons compared to neurons grown without growth factors ([2]; Table 4, exp2, 10 ng/ml): 1.02 fold | Fold change of survived neurons compared to neurons grown without growth factors ([2]; Table 4, exp2, 100 ng/ml): 0.93 fold | Fold change of survived neurons compared to neurons grown without growth factors ([2]; Table 4, exp2, 1000 ng/ml): 1.28 fold | Fold change of survived neurons compared to neurons grown without growth factors ([2]; Table 4, exp3, 1 ng/ml): 0.97 fold | Fold change of survived neurons compared to neurons grown without growth factors ([2]; Table 4, exp3, 10 ng/ml): 1.27 fold | Fold change of survived neurons compared to neurons grown without growth factors ([2]; Table 4, exp3, 100 ng/ml): 1.21 fold | Fold change of survived neurons compared to neurons grown without growth factors ([2]; Table 4, exp3, 1000 ng/ml): 1.25 fold

RVAELKQILHSWGEECRACAEKTDYVNLIQELAPKYA (listed as Homo sapiens) [pep8]
survived neurons as % compared to neurons grown in the presence of NGF ([1]; Table 1B (FIG. 16), exp1, tunicamycin 2 μM, counted after 3 days): 77.94 % NGF | survived neurons as % compared to neurons grown in the presence of NGF ([1]; Table 1B (FIG. 16), exp2, tunicamycin 2 μM, counted after 3 days): 65.57 % NGF | survived neurons as % compared to neurons grown in the presence of NGF ([1]; Table 1B (FIG. 16), exp3, tunicamycin 2 μM, counted after 3 days): 73.91 % NGF | rescue of ER stressed SCG neurons (result in words) ([1]; protein or peptide microinjected into the cytoplasm, tunicamycin 2 μM, living fluorescent neurons counted after 3 days): rescue | survived neurons as % compared to neurons grown in the presence of GDNF ([2]; Table 3B (FIG. 17), AVG, 1 ng/ml, 5 days): 64.02 % GDNF | survived neurons as % compared to neurons grown in the presence of GDNF ([2]; Table 3B (FIG. 17), AVG, 10 ng/ml, 5 days): 75.69 % GDNF | survived neurons as % compared to neurons grown in the presence of GDNF ([2]; Table 3B (FIG. 17), AVG, 100 ng/ml, 5 days): 85.95 % GDNF | survived neurons as % compared to neurons grown in the presence of GDNF ([2]; Table 3B (FIG. 17), AVG, 1000 ng/ml, 5 days): 81.43 % GDNF | protection of dopaminergic neurons in culture (result in words) ([2]; added to the culture medium, 5 days, TH-positive neurons counted): best protective effect
